Reference: US20250223412A1, “BLOWING AGENT, FOAMING RESIN COMPOSITION, POLYURETHANE UREA RESIN FOAM, AND PRODUCTION METHOD FOR POLYURETHANE UREA FOAM” (MITSUBISHI GAS CHEMICAL COMPANY, INC., priority 2022, published 2025)

Assay: Maximum carbon dioxide (CO2) release temperature of amine compound (DSC after CO2 absorption from air)
Format: physicochemical
Conditions: amine compound with CO2 absorbed (air, 23° C., 50% RH, 24 hours); heating 10° C./minute, 23 to 250° C., nitrogen
Protocol: A carbon dioxide detector and a Petri dish were placed in an openable desiccator (inner dimension: 370 mm×260 mm×272 mm). Subsequently the amine compound (5 mmol) was added to the Petri dish in the desiccator and the door was immediately closed to leave the amine compound to stand in the desiccator in an air environment at 23° C. and 50% RH for 24 hours. The initial concentration of carbon dioxide was adjusted to about 400 ppm.
Then the amine compound was taken out of the desiccator to give an amine compound with carbon dioxide absorbed. The maximum carbon dioxide release temperature of the amine compound with carbon dioxide absorbed was measured by subjecting the amine compound to DSC as described below. First, differential scanning calorimetry of the amine compound was performed under conditions of a temperature range of 23 to 250° C., a heating rate of 10° C./minute and a nitrogen atmosphere using a differential thermogravimeter (product name DTG-60 made by Shimadzu Corporation). The temperature at which the amount of heat absorbed due to the desorption of carbon dioxide was the maximum was calculated from the DSC curve obtained, and the temperature was determined as the maximum carbon dioxide release temperature of the amine compound.

Row | SMILES | Maximum CO2 release temperature [°C]
1 | NCC1CCCC(CN)C1 (stereo not shown) [1,3-BAC, 1,3-bis(aminomethyl)cyclohexane] | 125.7
2 | NCCN [Ethylenediamine, ethylenediamine] | 103.4
3 | CC1(C)CC(N)CC(C)(CN)C1 (stereo not shown) [IPDA, isophoronediamine] | 114.4
4 | NCc1cccc(CN)c1 [MXDA, metaxylylenediamine] | 135.5
